In patent US10081632B2, “Substituted tetrahydropyrido[3′,2′:4,5]pyrrolo[1,2-α]pyrazine-2-carboxamides as RSK inhibitors” (Phoenix Molecular Designs, priority 2016, dated 2018):

Columns and labels:
JIMT-1 cells [1] = assay: Monolayer growth inhibition, crystal violet assay; assay type: cell-based; settings: Homo sapiens; JIMT-1 (HER2), 5 days, single dose on day 1
From the text: (§1) In all instances a single dose was given on day 1 of the experiment. […] Complete (100%) growth suppression was achievable with several of the compounds in multiple different cell lines.

HCC1937 cells [2] = assay: Monolayer growth inhibition, crystal violet assay; assay type: cell-based; settings: Homo sapiens; HCC1937 (TNBC, BRCA Mutant), 5 days, single dose on day 1
From the text: as §1

MDA-MB-468 cells [3] = assay: Monolayer growth inhibition, crystal violet assay; assay type: cell-based; settings: Homo sapiens; MDA-MB-468 (TNBC), 5 days, single dose on day 1
From the text: as §1

T47D cells [4] = assay: Monolayer growth inhibition, crystal violet assay; assay type: cell-based; settings: Homo sapiens; T47D (ER/PR), 5 days, single dose on day 1
From the text: as §1

All cell lines [5] = assay: Monolayer growth inhibition, Alamar blue assay, range over all cell lines; assay type: cell-based; settings: 120 h; range of IC50 over all cell lines of the table; read-out: IC50 Values - Alamar Blue (5 Days), Range, All
From the text: (§2) In all instances a single dose was given on day 1 of the experiment.

SUM149 cells [6] = assay: Monolayer growth inhibition, Alamar blue assay; assay type: cell-based; settings: Homo sapiens; SUM149 (TNBC, BRCA Mutant), 5 days, single dose on day 1
From the text: as §2

MDA-MB-435 cells [7] = assay: Monolayer growth inhibition, Alamar blue assay; assay type: cell-based; settings: Homo sapiens; MDA-MB-435 (Melanoma), 5 days, single dose on day 1
From the text: as §2

JIMT-1 cells [8] = assay: Monolayer growth inhibition, Alamar blue assay; assay type: cell-based; settings: Homo sapiens; JIMT-1 (HER2), 5 days, single dose on day 1
From the text: as §2

HCC1937 cells [9] = assay: Monolayer growth inhibition, Alamar blue assay; assay type: cell-based; settings: Homo sapiens; HCC1937 (TNBC, BRCA Mutant), 5 days, single dose on day 1
From the text: as §2

4T1 cells [10] = assay: Monolayer growth inhibition, Alamar blue assay; assay type: cell-based; settings: Mus musculus; 4T1 (TNBC), 5 days, single dose on day 1
From the text: as §2

PC3 cells [11] = assay: Monolayer growth inhibition, Alamar blue assay; assay type: cell-based; settings: Homo sapiens, PC-3; PC3 (Prostate), 5 days, single dose on day 1
From the text: as §2

MDA-MB-468 cells [12] = assay: Monolayer growth inhibition, Alamar blue assay; assay type: cell-based; settings: Homo sapiens; MDA-MB-468 (TNBC), 5 days, single dose on day 1
From the text: as §2

MDA-MB-231 cells [13] = assay: Monolayer growth inhibition, Alamar blue assay; assay type: cell-based; settings: Homo sapiens; MDA-MB-231 (TNBC), 5 days, single dose on day 1
From the text: as §2

HCC1143 cells [14] = assay: Monolayer growth inhibition, Alamar blue assay; assay type: cell-based; settings: Homo sapiens; HCC1143 (TNBC), 5 days, single dose on day 1
From the text: as §2

SUM149 cells [15] = assay: Monolayer growth inhibition, crystal violet assay; assay type: cell-based; settings: Homo sapiens; SUM149 (TNBC, BRCA Mutant), 5 days, single dose on day 1
From the text: as §2

MDA-MB-435 cells [16] = assay: Monolayer growth inhibition, crystal violet assay; assay type: cell-based; settings: Homo sapiens; MDA-MB-435 (Melanoma), 5 days, single dose on day 1
From the text: as §2

SUM149-PTXR cells [17] = assay: Monolayer growth inhibition, crystal violet assay; assay type: cell-based; settings: Homo sapiens; SUM149-PTXR (TNBC, BRCA Mutant), 5 days, single dose on day 1
From the text: as §2

4T1 cells [18] = assay: Monolayer growth inhibition, crystal violet assay; assay type: cell-based; settings: Mus musculus; 4T1 (TNBC), 5 days, single dose on day 1
From the text: as §2

PC3 cells [19] = assay: Monolayer growth inhibition, crystal violet assay; assay type: cell-based; settings: Homo sapiens, PC-3; PC3 (Prostate), 5 days, single dose on day 1
From the text: as §2

MDA-MB-231 cells [20] = assay: Monolayer growth inhibition, crystal violet assay; assay type: cell-based; settings: Homo sapiens; MDA-MB-231 (TNBC), 5 days, single dose on day 1
From the text: as §2

HCC1143 cells [21] = assay: Monolayer growth inhibition, crystal violet assay; assay type: cell-based; settings: Homo sapiens; HCC1143 (TNBC), 5 days, single dose on day 1
From the text: as §2

SUM149-PTXR cells [22] = assay: Monolayer growth inhibition, Alamar blue assay; assay type: cell-based, Human; settings: Homo sapiens; SUM149-PTXR (TNBC, BRCA Mutant), 5 days, single dose on day 1
From the text: as §2

T47D cells [23] = assay: Monolayer growth inhibition, Alamar blue assay; assay type: cell-based, Human; settings: Homo sapiens; T47D (ER/PR), 5 days, single dose on day 1
From the text: as §2

All cell lines [24] = assay: Monolayer growth inhibition, crystal violet assay, range over all cell lines; assay type: cell-based; settings: 120 h; range of IC50 over all cell lines of the table; read-out: IC50 Values - Crystal Violet (5 Days), Range, All
From the text: as §1

[25] = Solubility assessment, 20 mg/ml solution; assay type: physicochemical
Procedure: Solubility is an important property for therapeutic drug candidates. Poor solubility can lead to low bioavailability resulting in suboptimal drug delivery. It can also prevent the evaluation of test agents in animals because the concentration(s) needed to achieve the desired effect cannot be achieved to poor solubility. For solubility assessments, small molecules targeting RSK were compared. For these assessments, 100 mM solutions of the compounds dissolved in DMSO were diluted in DMEM growth media (Life Technologies) supplemented with fetal bovine serum (FBS, Life Technologies) and 100 units/ml penicillin and 100 units/ml streptomycin (Life Technologies) to make 20 mg/ml solutions. Once diluted, the solutions were vortexed and examined for the formation of precipitates. […] For Compound 26, a 100 mM solution of the compound dissolved in DMSO was diluted in phosphate buffered saline (Life Technologies) to make a 20 mg/ml solution. The stock of […] was chosen because this is the upper end of what would be required to dose mice for a range of studies including MTD, PK, PD and efficacy. The pH of this solution was determined to be 2, as previously described. […] At high concentrations some RSK inhibitors were highly soluble while others were not. Compound 0 is (R)—N-(1-benzyl-1H-pyrazol-4-yl)-9-methyl-6-oxo-6,7,8,9-tetrahydropyrido[3′,2′:4,5]pyrrolo[1,2-a]pyrazine-2-carboxamide. Compound 0 was not soluble, whereas Compounds 18, 20, 21, 25 and 26 were soluble under the same conditions (Table 5).

MDA-MB-468 cells [26] = assay: Soft agar growth inhibition assay; assay type: cell-based, Human; settings: Homo sapiens; MDA-MB-468 (TNBC), 14-22 days
4T1 cells [27] = assay: Soft agar growth inhibition assay; assay type: cell-based; settings: Mus musculus; 4T1 (TNBC), 14-22 days; read-out: IC50 Values - Soft Agar (14-22 Days)
Procedure: Two agar (Alfa Aesar) solutions (0.8% w/v and 0.4% w/v) were prepared in ultrapure water. The 0.8% agar solution was mixed in equal volumes with 2× media previously prepared from powder (Life Technologies) following the manufacturer's instructions and filter sterilized. The 0.8% agar and media solution was added to 24 well plates (Mandel Scientific) at 500 μl per well. The plates were placed in a humidified incubator at 37° C. with 5% CO2. Next, the 0.4% agar solution was mixed in equal volumes with 2× media. Breast cancer cell lines were added to this solution to achieve a final concentration of 2×10^4 cells per well and […] was added to each well on top of the bottom agar and media layer. […] The plates were returned to the incubator for 10-32 days, with a re-dosing of compounds or DMSO every 7 days. After 10-32 days, colonies were counted in 3 different fields of view for each well.
Representative compounds described herein were tested in the soft agar growth inhibition assay against the 4T1 breast cancer cell line.

MDA-MB-231 cells [28] = assay: Soft agar growth inhibition assay; assay type: cell-based; settings: Homo sapiens; MDA-MB-231 (TNBC), 14-22 days; read-out: IC50 Values - Soft Agar (14-22 Days)

SMILES	IC50 (JIMT-1 cells [1])	IC50 (HCC1937 cells [2])	IC50 (MDA-MB-468 cells [3])	IC50 (T47D cells [4])	IC50 (All cell lines [5])	IC50 (SUM149 cells [6])	IC50 (MDA-MB-435 cells [7])	IC50 (JIMT-1 cells [8])	IC50 (HCC1937 cells [9])	IC50 (4T1 cells [10])	IC50 (PC3 cells [11])	IC50 (MDA-MB-468 cells [12])	IC50 (MDA-MB-231 cells [13])	IC50 (HCC1143 cells [14])	IC50 (SUM149 cells [15])	IC50 (MDA-MB-435 cells [16])	IC50 (SUM149-PTXR cells [17])	IC50 (4T1 cells [18])	IC50 (PC3 cells [19])	IC50 (MDA-MB-231 cells [20])	also measured
C[C@@H]1CNC(=O)c2cc3ccc(NC(=O)c4cnn(Cc5cccc(N)c5)c4)nc3n21 [Compound 19, (R)-1-(3-aminobenzyl)-N-(9-methyl-6-oxo-6,7,8,9-tetrahydropyrido[3′,2′:4,5]pyrrolo[1,2-a]pyrazin-2-yl)-1H-pyrazole-4-carboxamide]	34 ± 12.8 µM	19.9 ± 8.7 µM	7.4 ± 1 µM	7.7 ± 1.5 µM	10.5 to 37.3 µM	15.8 ± 6.4 µM	10.5 ± 2.2 µM	37.3 ± 9 µM	16.6 ± 11.5 µM	20.6 ± 2.5 µM	17.1 ± 8.7 µM	14.7 ± 4.1 µM	25.6 ± 1.5 µM	11.5 ± 3.6 µM	11.1 ± 3.9 µM	10.3 ± 3.5 µM	13 ± 1.3 µM	15.8 ± 4.8 µM	14.9 ± 6.6 µM	17.2 ± 1.9 µM	IC50 (HCC1143 cells [21]): 13.8 ± 4.3 µM; IC50 (SUM149-PTXR cells [22]): 14.1 ± 4.3 µM; IC50 (T47D cells [23]): 13.5 ± 4.6 µM; IC50 (All cell lines [24]): 7.4 to 34 µM
C[C@@H]1CNC(=O)c2cc3ccc(C(=O)Nc4ccccc4C(N)=O)nc3n21 [Compound 21, (R)—N-(2-carbamoylphenyl)-9-methyl-6-oxo-6,7,8,9-tetrahydropyrido[3′,2′:4,5]pyrrolo[1,2-a]pyrazine-2-carboxamide]	11.3 ± 4.1 µM	11 ± 1 µM	4.6 ± 1.4 µM	3.7 ± 2.7 µM	1.2 to 14.7 µM	2.7 ± 1.3 µM	8.3 ± 5.3 µM	12.6 ± 6.4 µM	8.3 ± 2.4 µM	1.2 ± 0.3 µM	7.1 ± 0.9 µM	6.5 ± 4.5 µM	14.7 ± 4.3 µM	5.4 ± 3.7 µM	2.4 ± 1.3 µM	4.8 ± 2.1 µM	2 ± 0.2 µM	1.1 ± 0.7 µM	4.3 ± 0.5 µM	9.1 ± 0.8 µM	Solubility, 20 mg/ml Solution ([25]; 100 mM in DMSO diluted in DMEM growth media to 20 mg/ml): Soluble; pH of 20 mg/ml solution ([25]; DMSO stock diluted in DMEM, pH test strips): 9; IC50 (MDA-MB-468 cells [26]): 0.4 ± 0.1 µM; IC50 (HCC1143 cells [21]): 9.5 ± 5.6 µM; IC50 (SUM149-PTXR cells [22]): 1.5 ± 0.8 µM; IC50 (T47D cells [23]): 8 ± 3.8 µM; IC50 (All cell lines [24]): 1.1 to 11.3 µM; IC50 (4T1 cells [27]): 3.1 ± 0.6 µM; IC50 (MDA-MB-231 cells [28]): 2 ± 1 µM
